Among the data in patent US20230271949A1, “GLP-1R MODULATING COMPOUNDS” (ASCLETIS BIOSCIENCE CO., LTD., priority 2022, published 2023) are EC50 values, retold here.

pEC50: −log10 of the molar value. Bounds are passed on as bounds.

GLP-1R, sequence (P43220 24-463): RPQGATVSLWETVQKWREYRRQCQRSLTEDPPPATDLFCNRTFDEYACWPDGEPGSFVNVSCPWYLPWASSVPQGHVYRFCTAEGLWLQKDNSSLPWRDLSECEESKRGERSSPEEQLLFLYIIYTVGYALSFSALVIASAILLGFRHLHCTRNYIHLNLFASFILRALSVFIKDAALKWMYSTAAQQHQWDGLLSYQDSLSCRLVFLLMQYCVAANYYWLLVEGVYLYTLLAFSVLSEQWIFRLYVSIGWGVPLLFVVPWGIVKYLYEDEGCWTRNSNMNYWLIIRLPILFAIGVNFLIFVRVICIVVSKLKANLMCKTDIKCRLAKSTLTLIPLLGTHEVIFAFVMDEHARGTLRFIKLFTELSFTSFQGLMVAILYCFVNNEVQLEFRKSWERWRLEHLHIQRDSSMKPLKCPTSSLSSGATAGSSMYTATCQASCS

In this assay the target is GLP-1R (Homo sapiens, UniProt P43220). The assay can be described thus: GLP-1R agonist cAMP stimulation assay (HTRF cAMP). The assay is classed as cell-based. The settings on record: HEK293 cell line expressing GLP-1 target; HTRF cAMP agonist mode, 30 min at RT. How it is done:
cAMP Detection Kit, Cisbio (Cat #62AM4PEJ)
The cell line was constructed by WuXi.
2. Methods • a) The compound source plate preparation: • The reference 7-37 was diluted from 500 nM, 4-fold, 10 points in DMSO using Bravo. The compounds were diluted from […], 3-fold, 10 points in DMSO using Bravo. • b) Transfer of compounds: • 1) Use Echo transfer 100 nL cpd to the OptiPlate-384 plate. • 2) Spin the plates at 1000 rpm for 5 sec. • c) Cell suspension preparation: • 1) Thaw 1 vial of GLP-1 cells rapidly in 37° C. water bath. • 2) Transfer cell suspension into 10 ml of HBSS in a 15 ml conical tube. • 3) Centrifuge cells at 1000 rpm for 5 min at room temperature to pellet cells • 4) Gently aspirate supernatant being careful not to aspirate cells. • 5) Flick pellet to loose cells and re-suspend the cell pellet in 10 ml HBSS. Use a sterile pipette to pipette up and down to dislodge clumps. • 6) Count cells for concentration and to determine cell viability on Vi-cell. • 7) Re-suspend the GLP-1 cells in assay buffer at a concentration of 1.0×E5/mL cells. • 8) Transfer 10 μL GLP-1 cells to OptiPlate-384 plate. • d) HTRF cAMP Assay for agonist: • 1) Incubate the plate at RT for 30 min before adding the detection reagent. • 2) Add 10 μL each of detection reagent using Electric Multiple Channel Pipette. • 3) Cover the 384 plate with TopSeal-A film and incubate for 60 minutes at room temperature. • Remove the TopSeal-A, read on EnVision.
Create a new log (Inhibitor) vs response—Variable slope mode in Prism5.0 software, substitute the standard curve concentration (x) and its corresponding 665/615 data (y) into the model, convert the standard curve concentration (abscissa) by x=log(x), and make the standard curve through the converted xy.
Transform the data of 665/615 in the whole plate into a column of data, substitute it into y in the table of standard curve concentration (x) and 665/615 data (y), copy the x (interpolatedx) corresponding to automatic conversion by the software into a table, convert it into cAMP level by the formula x=10^(x), and reset the data into 384 distribution.
% Activity=(cAMP level−LC)/(HC−LC)*100% • Z factor: 1-3*(STD_HC+[…])/(HC-LC) • Assay Window: HC/LC • LC: The average cAMP level of adding DMSO wells • HC: The average cAMP level of adding the top concentration of reference compounds wells.
Create a new […] in Prism5.0 software, substitute the sample concentration (x) and its corresponding % Activity data (y) into the model, convert the standard curve concentration (abscissa) to x=log(x), and make the sample curve through the converted xy.
With `Cc1cc(NC(=O)c2ccc3c(c2)nc(CN2CC=C(c4cccc(OCc5ccc(Cl)cc5F)n4)CC2)n3C[C@@H]2CCO2)cc2c(C3CC3)n[nH]c12` [Compound 164], the pEC50 (commonly the EC50 on a negative log10 scale, so that one unit is a factor of ten) was 8.77. Then `N#Cc1ccc(COc2cccc(C3CCN(Cc4nc5cc(C(=O)Nc6ccc7c(c6)C6(CC6)C(=O)N7)ccc5n4C[C@@H]4CCO4)CC3)n2)c(F)c1` [Compound 128], with 9.52; and `Cc1n[nH]c2ccc(NC(=O)c3ccc4c(c3)nc(CN3CC=C(c5cccc6c5O[C@](C)(c5ccc(Cl)cc5F)O6)CC3)n4C[C@@H]3CCO3)cc12` [Compound 6], with 8.92; and `Cc1n[nH]c2c(C)cc(NC(=O)c3ccc4c(c3)nc(CN3CC=C(c5cccc(OCc6ccc(Cl)cn6)n5)CC3)n4C[C@@H]3CCO3)cc12` [Compound 165], with 9.06. `Cc1n[nH]c2c(C(F)(F)F)cc(C(=O)Nc3ccc4c(c3)nc(CN3CC=C(c5cccc(OCc6ccc(Cl)cc6F)n5)CC3)n4C[C@@H]3CCO3)cc12` [Compound 210] gave a pEC50 of 9.41.

The molecule `Cc1n[nH]c2c(C)cc(NC(=O)c3cc4c(nc(CN5CC=C(c6cccc(OCc7ccc(Cl)cc7F)n6)CC5)n4C[C@@H]4CCO4)s3)cc12` [Compound 405] had a negative logarithm of the EC50 (pEC50) of 7.40. Then `O=C(Nc1cc(C(F)(F)F)c2[nH]nc(C3CC3)c2c1)c1ccc2c(c1)nc(CN1CCC(c3cccc(OCc4ccc(Cl)cc4F)n3)CC1)n2C[C@@H]1CCO1` [Compound 113], with 8.36; and `COCCn1c(CN2CCC(c3cccc(OCc4ccc(Cl)cc4F)n3)CC2)nc2cc(C(=O)NC3Cc4cc(C)c(O)cc4C3)ccc21` (centres unmarked) [Compound 43], with 6.59; and `Cc1cc(NC(=O)c2ccc3c(c2)nc(CN2CCC(c4cccc(OCc5ccc(C#N)cc5F)n4)CC2)n3C[C@@H]2CCO2)cc2c(C(F)F)n[nH]c12` [Compound 132], with 9.13. `Cc1cc(NC(=O)c2ccc3c(n2)nc(CN2CC=C(c4cccc(OCc5ccc(Cl)cc5F)n4)CC2)n3C[C@@H]2CCO2)cc2cn[nH]c12` [Compound 137] gave a negative logarithm of the EC50 (pEC50) of 8.26. Then `C=C(C)c1n[nH]c2ccc(C(=O)Nc3ccc4c(c3)nc(Cc3c(F)cc(-c5cccc6c5OC(C)(c5ccc(Cl)cc5F)O6)cc3F)n4CC3CCO3)cc12` (centres unmarked) [Compound 327], with 8.40; and `O=C(Nc1ccc2nc(CN3CC=C(c4cccc(OCc5ccc(Cl)cc5F)n4)CC3)n(C[C@@H]3CCO3)c2c1)c1ccc2c(c1)C1(CC1)C(=O)N2` [Compound 281], with 8.92. Then `O=C(NCC(=O)N1CC[C@H]1C(=O)O)c1ccc2c(c1)nc(CN1CCC(c3cccc(OCc4ccc(Cl)cc4F)n3)CC1)n2C[C@@H]1CCO1` [Compound 61], with 8.17. `Cc1n[nH]c2cc(NC(=O)c3ccc4c(c3)nc(CN3CCC(c5cccc(OCc6ccc(Cl)cc6F)n5)CC3)n4C[C@@H]3CCO3)ccc12` [Compound 94] had a pEC50 of 6.43. Then `Cn1cc2cc(NC(=O)c3ccc4c(c3)nc(CN3CCC(c5cccc(OCc6ccc(Cl)cc6F)n5)CC3)n4C[C@@H]3CCO3)ccc2n1` [Compound 99], with 7.37; and `Cc1n[nH]c2ccc(NC(=O)c3ccc4c(c3)nc(CN3CCC(c5cccc(OCc6c(F)cnc7ccccc67)n5)CC3)n4C[C@@H]3CCO3)cc12` [Compound 380], with 8.16.

Molecule `Cc1n[nH]c2ccc(NC(=O)c3ccc4c(c3)nc(CN3CC=C(c5cccc(OCc6c(F)cnc7ccccc67)n5)CC3)n4C[C@@H]3CCO3)cc12` [Compound 368] gave a negative-log EC50 (pEC50) of 8.04. Then `O=C(NCC(=O)N1CC[C@H](C(=O)O)C1)c1ccc2c(c1)nc(CN1CCC(c3cccc(OCc4ccc(Cl)cc4F)n3)CC1)n2C[C@@H]1CCO1` [Compound 54], with 7.10. Then `COCCn1c(CN2CCC(c3cccc(OCc4ccc(Cl)cc4F)n3)CC2)nc2cc(C(=O)NCc3ccc(O)c(O)c3)ccc21` [Compound 33], with 7.21; and `Cc1cc(NC(=O)c2ccc3c(c2)nc(CN2CC=C(c4cccc5c4OC(C)(c4ccc(Cl)cc4F)O5)CC2)n3C[C@@H]2CCO2)cc2[nH]c(=O)[nH]c12` (some centres unmarked) [Compound 303], with 9.04; and `CC1(c2ccc(C#N)cc2F)Oc2cccc(C3CCN(Cc4nc5cc(NC(=O)c6ccc7[nH]nc(C8CC8)c7c6)ccc5n4CC4CCO4)CC3)c2O1` (centres unmarked) [Compound 348], with 9.04. `N#Cc1ccc(COc2cccc(C3=CCN(Cc4nc5cc(NC(=O)c6ccc7c(c6)C6(CC6)C(=O)N7)ccc5n4C[C@@H]4CCO4)CC3)n2)c(F)c1` [Compound 230] had a pEC50 of 10.05. As for `Cc1n[nH]c2cnc(NC(=O)c3ccc4c(c3)nc(CN3CC=C(c5cccc(OCc6ccc(Cl)cc6F)n5)CC3)n4C[C@@H]3CCO3)cc12` [Compound 192], the figure is 8.01; as for `Cc1cc(NC(=O)c2ccc3c(c2)nc(CN2CCC(c4cccc(OCc5ccc(Cl)cc5F)n4)CC2)n3C[C@@H]2CCO2)cc2c(C3CC3)n[nH]c12` [Compound 114], 8.98. As for `Cc1n[nH]c2ncc(NC(=O)c3ccc4c(c3)nc(CN3CC=C(c5cccc(OCc6ccc(Cl)cc6F)n5)CC3)n4C[C@@H]3CCO3)nc12` [Compound 190], the figure is 8.03; as for `Cc1cc(NC(=O)c2ccc3c(c2)nc(CN2CC=C(c4cccc(OCc5ccc(C#N)cc5F)n4)CC2)n3C[C@@H]2CCO2)cc2c(C3CC3)n[nH]c12` [Compound 185], 8.88. `O=C(Nc1ccc2c(c1)C1(CC1)C(=O)N2)c1ccc2c(c1)nc(CN1CCC(c3cccc(OCc4ccc(Cl)cc4F)n3)CC1)n2C[C@@H]1CCO1` [Compound 86]: the negative logarithm of the EC50 (pEC50) is 9.12.

`N#Cc1n[nH]c2ccc(NC(=O)c3ccc4c(c3)nc(CN3CCC(c5cccc(OCc6ccc(Cl)cc6F)n5)CC3)n4C[C@@H]3CCO3)cc12` [Compound 82] had a pEC50 of 6.94. As for `N#Cc1ccc(COc2cccc(C3=CCN(Cc4nc5cc(C(=O)Nc6ccc7c(c6)C6(CC6)C(=O)N7)ccc5n4C[C@@H]4CCO4)CC3)n2)c(F)c1` [Compound 182], the figure is 9.49; as for `CCc1n[nH]c2ccc(NC(=O)c3ccc4c(c3)nc(CN3CCC(c5cccc(OCc6ccc(C#N)cc6F)n5)CC3)n4C[C@@H]3CCO3)cc12` [Compound 135], 8.90.

In turn, `Cc1cc(C(=O)Nc2ccc3c(c2)nc(CN2CC=C(c4cccc(OCc5ccc(Cl)cc5F)n4)CC2)n3C[C@@H]2CCO2)c(F)c2c(C)n[nH]c12` [Compound 222] gave a negative-log EC50 (pEC50) of 8.45. Then `O=C(Nc1cc(F)c2[nH]ncc2c1)c1ccc2c(c1)nc(CN1CCC(c3cccc(OCc4ccc(Cl)cc4F)n3)CC1)n2C[C@@H]1CCO1` [Compound 102], with 8.88; and `Cc1n[nH]c2ccc(NC(=O)c3ccc4nc(CN5CC=C(c6cccc(OCc7ccc(Cl)cc7F)n6)CC5)n(CC5CCO5)c4c3)cc12` (centres unmarked) [Compound 263], with 8.24.

Take `O=C(Nc1ccc2ncsc2c1)c1ccc2c(c1)nc(CN1CC=C(c3cccc(OCc4ccc(Cl)cc4F)n3)CC1)n2C[C@@H]1CCO1` [Compound 150]: the negative-log EC50 (pEC50) was 8.24. As for `Cc1cc2c(C#N)ccc(COc3cccc(C4=CCN(Cc5nc6cc(C(=O)Nc7cc(F)c8[nH]nc(C)c8c7)ccc6n5C[C@@H]5CCO5)CC4)n3)c2s1` [Compound 350], the figure is 9.29; as for `Nc1ncc2c(ncn2C(=O)c2ccc3c(c2)nc(CN2CCC(c4cccc(OCc5ccc(Cl)cc5F)n4)CC2)n3C[C@@H]2CCO2)n1` [Compound 78], 7.64.

`Cc1n[nH]c2c(C)cc(C(=O)Nc3ccc4c(c3)nc(CN3CC=C(c5cccc6c5OC(C)(c5ccc(Cl)cc5F)O6)CC3)n4CC3CCO3)cc12` (centres unmarked) [Compound 305] gave a pEC50 of 9.72. Then `N#Cc1ccc(COc2cccc(C3CCN(Cc4nc5cc(C(=O)Nc6cc(F)c7[nH]ncc7c6)ccc5n4C[C@@H]4CCO4)CC3)n2)c(F)c1` [Compound 129], with 8.94; and `Cc1n[nH]c2ccc(C(=O)Nc3ccc4c(c3)nc(CN3CC=C(c5cccc(OCc6ccc(Cl)cc6F)n5)CC3)n4C[C@@H]3CCO3)nc12` [Compound 239], with 8.50; and `Fc1cc(Cl)ccc1COc1cccc(C2=CCN(Cc3nc4cc(-c5nc(-c6c[nH]c(C(F)(F)F)n6)co5)ccc4n3C[C@@H]3CCO3)CC2)n1` [Compound 399], with under 5.00. Then `Cc1cc(C(=O)Nc2ccc3c(c2)nc(CN2CC=C(c4cccc(OCc5ccc(C#N)cc5F)n4)CC2)n3C[C@@H]2CCO2)cc2cn[nH]c12` [Compound 236], with 8.98.
